Reference: patent US20170051034A1 (Novo Nordisk A/S, priority 2010, published 2017)
pEC50: −log10 of the molar value. Numbered stars: 1 amine (or outer) side, 2 acyl side, 3 side chain; on linkers, the order of the positions; unused ones are H or OH. Square brackets hold non-standard residues; d marks the D form. Side chains are listed from the residue outwards. Peptide text beside a SMILES is read from it. * marks the point of attachment. C18 diacid = O=C(O)CCCCCCCCCCCCCCCCC(=O)*; γGlu = O=C(O)[C@H](CCC(=O)[*:2])N[*:1]; Orn = NCCC[C@H](N)C(=O)O; AEEA = NCCOCCOCC(=O)O

Legend:
[1] = target: glucagon receptor (Homo sapiens, UniProt P47871); assay: cell-based
Chain of glucagon receptor (P47871 26-477): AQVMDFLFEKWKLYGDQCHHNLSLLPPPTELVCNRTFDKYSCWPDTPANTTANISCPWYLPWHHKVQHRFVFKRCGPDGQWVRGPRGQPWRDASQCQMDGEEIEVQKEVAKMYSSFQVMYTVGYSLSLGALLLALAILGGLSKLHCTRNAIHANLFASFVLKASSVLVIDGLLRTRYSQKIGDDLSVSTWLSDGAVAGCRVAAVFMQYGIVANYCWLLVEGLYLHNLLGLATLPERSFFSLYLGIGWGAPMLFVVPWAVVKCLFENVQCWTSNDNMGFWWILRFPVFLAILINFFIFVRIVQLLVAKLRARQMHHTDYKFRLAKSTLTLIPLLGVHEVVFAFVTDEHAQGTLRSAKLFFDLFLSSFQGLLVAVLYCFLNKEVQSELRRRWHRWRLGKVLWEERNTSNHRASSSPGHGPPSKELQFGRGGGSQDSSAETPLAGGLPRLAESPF
Method: The cells (14000 per well) were incubated (37° C., 5% CO2) overnight in 384-well plates. Next day the cells were loaded with a calcium responsive dye that only distributed into the cytoplasm. Probenecid, an inhibitor of the organic anion transporter, was added to prevent the dye from leaving the cell. A PDE inhibitor was added to prevent formatted cAMP from being degraded. […] End point data were collected after 6 minutes. An increase in intracellular cAMP was proportional to an increased in calcium concentrations in the cytoplasm. […] EC50-values were calculated in Prism5.

[2] = ThT fibrillation assay (lag time and recovery); type: physicochemical; conditions: Table 2
Method: This has traditionally been measured by visual inspection of the sample. However, that kind of measurement is very subjective and depending on the observer. Therefore, the application of a small molecule indicator probe is much more advantageous. […] Enzymol.
The constant t0 is the time needed to reach 50% of maximum fluorescence. The two important parameters describing fibril formation are the lag-time calculated by t0−2τ and the apparent rate constant kapp 1/τ.
Samples were prepared freshly before each assay. […] The pH of the sample was adjusted to the desired value using appropriate amounts of concentrated NaOH and HCl. Thioflavin T was added to the samples from a stock solution in H2O to a final concentration of 1 μM.
The plate was sealed with Scotch Pad (Qiagen).
Each run was initiated by incubating the plate at the assay temperature for 10 min. The plate was measured every 20 minutes for a desired period of time. Between each measurement, the plate was shaken and heated as described.
The supernatant was filtered through a 0.22 μm filter and an aliquot was transferred to a HPLC vial.
The measurement points were saved in Microsoft Excel format for further processing and curve drawing and fitting was performed using GraphPad Prism. […] The data set may be fitted to Eq. (1).

CC(C)C[C@H](NC(=O)[C@H](Cc1ccc(O)cc1)NC(=O)[C@H](CCCCN)NC(=O)[C@H](CO)NC(=O)[C@H](Cc1ccc(O)cc1)NC(=O)[C@H](CC(=O)O)NC(=O)[C@H](CO)NC(=O)[C@@H](NC(=O)[C@H](Cc1ccccc1)NC(=O)[C@@H](NC(=O)CNC(=O)[C@H](CCC(N)=O)NC(=O)[C@H](CO)NC(=O)[C@@H](N)Cc1c[nH]cn1)[C@@H](C)O)[C@@H](C)O)C(=O)N[C@@H](CC(=O)O)C(=O)N[C@@H](CO)C(=O)N[C@@H](CCCCN)C(=O)N[C@@H](CCCCN)C(=O)N[C@@H](C)C(=O)N[C@@H](CCC(N)=O)C(=O)N[C@@H](CCC(=O)O)C(=O)N[C@@H](Cc1ccccc1)C(=O)N[C@H](C(=O)N[C@@H](CCCCNC(=O)COCCOCCNC(=O)COCCOCCNC(=O)[C@H](CCC(=O)O)NC(=O)CCCCCCCCCCCCCCCCC(=O)O)C(=O)N[C@@H](Cc1c[nH]c2ccccc12)C(=O)N[C@@H](CC(C)C)C(=O)N[C@@H](CC(C)C)C(=O)N[C@@H](CO)C(=O)N[C@H](C(=O)O)[C@@H](C)O)C(C)C [Example 72, N^ε24-[2-[2-[2-[[2-[2-[2-[[(2S)-4-carboxy-2-(17-carboxyheptadecanoylamino)butanoyl]amino]ethoxy]ethoxy]acetyl]amino]ethoxy]ethoxy]acetyl]-[Lys17,Lys18,Glu21,Lys24,Leu27,Ser28]-Glucagon] (H-HSQGTFTSDYSKYLDSKKAQEFVK([AEEA-AEEA-Glu-C18 diacid])WLLST-OH)
pEC50 [1]: 10.24

CC(C)C[C@H](NC(=O)[C@H](Cc1ccc(O)cc1)NC(=O)[C@H](CCCCN)NC(=O)[C@H](CO)NC(=O)[C@H](Cc1ccc(O)cc1)NC(=O)[C@H](CC(=O)O)NC(=O)[C@H](CO)NC(=O)[C@@H](NC(=O)[C@H](Cc1ccccc1)NC(=O)[C@@H](NC(=O)CNC(=O)[C@H](CCC(N)=O)NC(=O)[C@H](CO)NC(=O)[C@@H](N)Cc1c[nH]cn1)[C@@H](C)O)[C@@H](C)O)C(=O)N[C@@H](CC(=O)O)C(=O)N[C@@H](CO)C(=O)N[C@@H](CCCCN)C(=O)N[C@@H](CCCCN)C(=O)N[C@@H](C)C(=O)N[C@@H](CCC(N)=O)C(=O)N[C@@H](CCC(=O)O)C(=O)N[C@@H](Cc1ccccc1)C(=O)N[C@H](C(=O)N[C@@H](CCCNC(=O)COCCOCCNC(=O)COCCOCCNC(=O)CC[C@H](NC(=O)CCCCCCCCCCCCCCCCC(=O)O)C(=O)O)C(=O)N[C@@H](Cc1c[nH]c2ccccc12)C(=O)N[C@@H](CC(C)C)C(=O)N[C@@H](CC(C)C)C(=O)N[C@@H](CO)C(=O)N[C@H](C(=O)O)[C@@H](C)O)C(C)C [Example 73, N^ε24-[2-[2-[2-[[2-[2-[2-[[(4S)-4-carboxy-4-(17-carboxyheptadecanoylamino)butanoyl]amino]ethoxy]ethoxy]acetyl]amino]ethoxy]ethoxy]acetyl]-[Lys^17,Lys^18,Glu^21,Orn^24,Leu^27,Ser^28]-Glucagon] (H-HSQGTFTSDYSKYLDSKKAQEFV[Orn]([AEEA-AEEA-γGlu-C18 diacid])WLLST-OH)
pEC50 [1]: 10.44

CC(C)C[C@H](NC(=O)[C@H](Cc1ccc(O)cc1)NC(=O)[C@H](CCCCN)NC(=O)[C@H](CO)NC(=O)[C@H](Cc1ccc(O)cc1)NC(=O)[C@H](CC(=O)O)NC(=O)[C@H](CO)NC(=O)[C@@H](NC(=O)[C@H](Cc1ccccc1)NC(=O)[C@@H](NC(=O)CNC(=O)[C@H](CCC(N)=O)NC(=O)[C@H](CO)NC(=O)[C@@H](N)Cc1c[nH]cn1)[C@@H](C)O)[C@@H](C)O)C(=O)N[C@@H](CC(=O)O)C(=O)N[C@@H](CO)C(=O)N[C@@H](CCCCN)C(=O)N[C@@H](CCCCN)C(=O)N[C@@H](C)C(=O)N[C@@H](CCC(N)=O)C(=O)N[C@@H](CCC(=O)O)C(=O)N[C@@H](Cc1ccccc1)C(=O)N[C@H](C(=O)N[C@@H](CCC(N)=O)C(=O)N[C@@H](Cc1c[nH]c2ccccc12)C(=O)N[C@@H](CC(C)C)C(=O)N[C@@H](CC(C)C)C(=O)N[C@@H](CC(N)=O)C(=O)N[C@H](C(=O)O)[C@@H](C)O)C(C)C [[K^17, K^18, E^21, L^27] Glucagon, H—HSQGTFTSDYSKYLDSKKAQEFVQWLLNT—OH, reference compound] (H-HSQGTFTSDYSKYLDSKKAQEFVQWLLNT-OH)
pEC50 [1]: 11.52 | ThT assay [Lag time] [2]: 1 h
